Data on seven molecules can be found in patent US20070292386A9, “Vaccine formulations for intradermal delivery comprising adjuvants and antigenic agents” (priority 2004, published 2007).

B1: IL-7: cytokine interleukin-7 (protein, UniProt P13232 26-177, looked up)
Interleukin-7: DCDIEGKDGKQYESVLMVSIDQLLDSMKEIGSNCLNNEFNFFKRHICDANKEGMFLFRAARKLRQFLKMNSTGDFDLHLLKVSEGTTILLNCTGQVKGRKPAALGEAQPTKSLEENKSLKEQKKLNDLCFLKRLLQEIKTCWNKILMGTKEH
B2: IL-12: heterodimeric cytokine interleukin-12 (protein, UniProt P29459 23-219; P29460 23-328, looked up)
Interleukin-12 subunit alpha: RNLPVATPDPGMFPCLHHSQNLLRAVSNMLQKARQTLEFYPCTSEEIDHEDITKDKTSTVEACLPLELTKNESCLNSRETSFITNGSCLASRKTSFMMALCLSSIYEDLKMYQVEFKTMNAKLLMDPKRQIFLDQNMLAVIDELMQALNFNSETVPQKSSLEEPDFYKTKIKLCILLHAFRIRAVTIDRVMSYLNAS
Interleukin-12 subunit beta: IWELKKDVYVVELDWYPDAPGEMVVLTCDTPEEDGITWTLDQSSEVLGSGKTLTIQVKEFGDAGQYTCHKGGEVLSHSLLLLHKKEDGIWSTDILKDQKEPKNKTFLRCEAKNYSGRFTCWWLTTISTDLTFSVKSSRGSSDPQGVTCGAATLSAERVRGDNKEYEYSVECQEDSACPAAEESLPIEVMVDAVHKLKYENYTSSFFIRDIIKPDPPKNLQLKPLKNSRQVEVSWEYPDTWSTPHSYFSLTFCVQVQGKSKREKKDRVFTDKTSATVICRKNASISVRAQDRYYSSSWSEWASVPCS

Ends that are not written are not given here.

The experiment has as its system influenza antigen (Influenza APR834). Type of experiment: in vivo. Also noted: key: greater immune response (as indicated by X) as compared to the inoculums that contained Fluzone alone, or the non-immune inoculums. As to conditions: adjuvant with Fluzone, intradermal, Balb/c mice, one immunization, sera 21 days, vs Fluzone alone.
For the molecule “Tyr-Leu-Glu-Pro-Gly-Pro-Val-Thr-Ala [Melanonin Peptide 946]”, the “Increased Immune Response, Fluzone” value is listed as “X”. As for IL-6: cytokine interleukin 6, the entry is “X”; as for “VGVAPG [Elastin Repeating Peptide, mammalian peptide adjuvant]”, “X”; as for “Interferon-gamma: cytokine, interferon produced by lymphocytes”, “X”. As for “N-formyl-NIe Leu-Phe-NIe-Tyr-Lys [Neutrophil Chemo-attractant Peptide]”, the entry is “X”; as for B1, “X”. As to B2, the “Increased Immune Response, Fluzone” value is listed as “X”.
